Measured values: patent US20230302014A1, “USES OF GLUCOCORTICOID RECEPTOR (GR) ANTAGONIST AND ANDROGEN RECEPTOR (AR) DEGRADER COMBINATIONS” (ORIC Pharmaceuticals, Inc., priority 2020, published 2023)

Columns and labels:
Format in all cases: cell-based, Human
GR protein = experiment: Western blot of GR protein after dose-dependent or time-dependent AR degrader treatment; conditions: LNCaP and CWR22PC cells, 3 days, increasing doses 3-1000 nM
Description: (§1) LNCaP and CWR22PC cells were plated in seven 15-cm dishes (Corning#353025) at a density of 5 million cells per dish in RPMI-1640 media supplemented with 10% charcoal-stripped serum (CSS; OmegaScientific#FB4). After 24 hours, the cells were treated with 0, 3, 10, 30, 100, 300 and 1000 nM of ARD1 or ARD2 and incubated at 37° C. for 3 days. The cells were then trypsinized (Corning#25-053-CI) and harvested for transcript (RT-qPCR) and protein (western blot) analysis.
5 million of LNCaP and CWR22PC cells per dish were plated in five 15-cm dishes in 20 mL of RPMI-1640 media supplemented with 10% charcoal-stripped serum (CSS) and cultured at 37° C. for 24 hours. Cells were treated with 30 nM of dexamethasone and with 100 nM of ARD1 or ARD2 and maintained at 37° C. until harvest. On Day 0, 6, 10, 13, and 15, cells were trypsinized, cell pellets were washed with 1XPBS and then divided for mRNA and protein preparation.
Cell pellets were washed with PBS and lysed in RIPA buffer (VWR#AAJ63306-AK) supplemented with […] (VWR #AAJ65789-LQ). Resuspended cells were briefly sonicated for ~30 seconds using a probe sonicator and incubated on ice for 40 minutes, followed with centrifugation at 12,000 rpm for 15 minutes at 4° C. to collect the supernatant. Protein concentration was quantitated using Quick Start™ Bradford Protein Assay Kit (Bio-Rad #5000201). […]

[1] = system: AR target genes KLK3, KLK4, NKX3.1, FKBP5; experiment: Target gene assay (RT-qPCR, R1881-induced AR target genes); conditions: 100 pM R1881; for AR target gene FKBP5 induced by R1881 / AR target gene KLK3 induced by R1881 / AR target gene KLK4 induced by R1881 / AR target gene NKX3.1 induced by R1881: 24 hours post treatment
Description: (§2) 10,000 LNCaP and CWR22PC cells per well were plated in triplicate in poly-lysine coated 96-well plates (ThermoFisher#152039) in 200 µL of RPMI-1640 media supplemented with 10% charcoal-stripped serum. 24 hours later, cells were treated with 100 pM of R1881 and 8-point dilution for enzalutamide, ARD1 or ARD2 with concentrations ranging from 1 µM to 0.46 nM. After incubation at 37° C. for 24 hours, media was removed, and cells were washed once with PBS. 55 µL per well of iScript RT-qPCR sample preparation reagent (Bio-Rad #1708898) was added and incubated for 2 minutes before lysate was collected for mRNA analysis. RT-qPCR was set up in triplicate using 3 µL of lysate plus 7 µL of pre-mixed SensiFAST™ SYBR No-ROX One-Step Kit reagents (BIOLINE, Cat# BIO-98005) per reaction. The RT-qPCR reactions were run on a Bio-Rad CFX384 Real-Time PCR System and data was plotted with GraphPad Prism 8 software.
as §2, with “15,000” for “10,000”, “24 hours later, cells were treated with 100 pM of R1881 and 8-point dilution for enzalutamide, ARD1 or ARD2 with concentrations ranging from 1 µM to 0.46 nM.” left out, “75” for “55”

AR protein = experiment: Western blot of AR protein after dose-dependent AR degrader treatment; conditions: LNCaP and CWR22PC cells, 3 days, increasing doses 3-1000 nM
Description: Cell pellets were washed with PBS and lysed in RIPA buffer (VWR#AAJ63306-AK) supplemented with proteasome inhibitor cocktails (VWR #AAJ65789-LQ). Resuspended cells were briefly sonicated for ~30 seconds using a probe sonicator and incubated on ice for 40 minutes, followed with centrifugation at 12,000 rpm for 15 minutes at 4° C. to collect the supernatant. Protein concentration was quantitated using Quick Start™ Bradford Protein Assay Kit (Bio-Rad #5000201).
Proteins were transferred to nitrocellulose membranes using iBlot 2 Dry Blotting System (ThermoFisher#IB210021) at 20 V for 10 minutes.

AR mRNA = experiment: RT-qPCR of AR mRNA after dose-dependent AR degrader treatment; conditions: LNCaP and CWR22PC cells, 3 days, increasing doses 3-1000 nM
Description: as §1
Adherent cells or cell pellets harvested for mRNA analysis were first washed once with PBS and then resuspended in 600 µL of RLT lysis buffer (Qiagen Inc.) supplemented with 1% of betamercaptoethanol. RNA was extracted by QIAcube using the RNeasy Mini QIAcube kit (Qiagen#74116) according to manufacturer’s instructions. The extracted RNA samples were then quantified using a Nanodrop 8000 Spectrophotometer. RT-qPCR reactions were set up in triplicate using 3 µL of 3 ng/ µL of RNA in 7 µL of pre-mixed SensiFAST™ SYBR No-ROX One-Step Kit reagents (BIOLINE# BIO-98005). The RT-qPCR reactions were run on a Bio-Rad CFX384 Real-Time PCR System and data was plotted with GraphPad Prism 8 software.
LNCaP and CWR22PC cells were plated in seven 10-cm dishes (Corning#353003) at a density of 2 million cells per dish in RPMI-1640 media supplemented with 10% charcoal-stripped serum (CSS; OmegaScientific#FB4). […]

N#Cc1ccc(O[C@H]2CC[C@H](NC(=O)c3ccc(N4CCC(CN5CCN(c6cc7c(cc6F)C(=O)N(C6CCC(=O)NC6=O)C7=O)CC5)CC4)nn3)CC2)cc1Cl (stereo partly drawn) [ARV-110, N-[trans-4-(3-chloro-4-cyanophenoxy)cyclohexyl]-6-[4-[[4-[2-(2,6-dioxo-3-piperidinyl)-6-fluoro-2,3-dihydro-1,3-dioxo-1H-isoindol-5-yl]-1-piperazinyl]methyl]-1-piperidinyl]-3-pyridazinecarboxamide]
GR protein levels (GR protein): minimally impacting | AR target gene FKBP5 induced by R1881 ([1]; CWR22PC cells): inhibit | AR target gene KLK3 induced by R1881 ([1]; CWR22PC cells): inhibit | AR target gene KLK4 induced by R1881 ([1]; CWR22PC cells): inhibit | AR target gene NKX3.1 induced by R1881 ([1]; CWR22PC cells): inhibit | expression of AR target genes including KLK3, KLK4, NKX3.1, and FKBP5 ([1]; LNCaP and CWR22PC cells, 24 hours, 1 µM to 0.46 nM, potency compared with enzalutamide): in a dose-dependent manner with greater potency than AR antagonist enzalutamide | AR target gene FKBP5 induced by R1881 ([1]; LNCaP cells): inhibit | AR target gene KLK3 induced by R1881 ([1]; LNCaP cells): inhibit | AR target gene KLK4 induced by R1881 ([1]; LNCaP cells): inhibit | AR target gene NKX3.1 induced by R1881 ([1]; LNCaP cells): inhibit | AR protein levels (AR protein): degrades AR protein in a dose-dependent manner | AR transcript levels (AR mRNA): minimally impacting
